Reference: EP1439394A1, “Method and apparatus for etablishing ADME profiles in the early stage of develloppment of active substances” (priority 2002, dated 2004)

What was measured:
[1] = target: HSA (Homo sapiens, UniProt P02768); conditions: standard ligands immobilised on the array; protein not named, HSA per Example 2 / Abb. 2
Excerpt: (§1) Wird SPR als Detektionsmethode eingesetzt, ist es vorteilhaft, zunächst eine Messung des Microarrays ohne Lösung (Luftmessung) durchzuführen und danach eine Messung des Microarrays mit der Pufferlösung durchzuführen, in der anschließend das ADME relevante Biomolekül gelöst wird (Puffermessung). Anschliessend wird die Pufferlösung gegen eine Lösung des ADME relevanten Biomoleküls in demselben Puffer ausgetauscht und nochmals gemessen (Proteinmessung). Die Puffermessungen und die Proteinmessungen werden mittels der Luftmessung normiert und anschließend wird die Differenz zwischen den beiden Minima der Proteinmessung und der Puffermessung ermittelt.
(§2) Die so ermittelte Verschiebung (in nm) zwischen den beiden (ggf. normierten) Messungen ist ein Maß für die Bindungsstärke zwischen den immobilisierten Liganden und dem ADME relevanten Biomolekül (s. Beispiel 1).
Anschließend wurde der Chip je dreifach in 1. Methanol/1%TFA, 2. H2O/0,1% TFA und 3. H2O/0,02M HOAc gewaschen sowie unter Stickstoffstrom getrocknet.
Alle Verbindungen weisen eine Carboxy-Funktionalität auf, die mit einem Amin umgesetzt wurden, das endständig eine Thiolgruppe zur Anbindung an die Maleimid-Kopfgruppe des Ankers trägt.
Die Wirkstoffvorstufen, die so auf die Oberfläche gebracht werden, sind in einer 40 µM Lösung aus 0,2 M Phosphatpuffer (Pi), 5 mM EDTA und 20% (v/v) EG, pH 7.0, gelöst. Das Pinning Tool setzt ca. 10 nl pro Spot ab, so daß in jedem Spot ein hoher Überschuß des Wirkstoffvorstufen-Tag Konjugates gegenüber der oberflächengebundenen Maleimid-Gruppe gewährleistet wird und somit eine vollständige Belegung der Maleimid-Gruppen erreicht werden kann. In den freien Bereichen wurden die Maleimid-Gruppen anschließend durch Inkubation des Chips in 0,2 M Pi, pH 7.0, 10mM Mesh für 30 min abgesättigt. Danach wurde je dreimal mit 1. H2O/0,02M HOAc, 2. MeOH/H2O und 3. 2-Propanol gewaschen sowie unter Stickstoffstrom getrocknet.
Die Verschiebung der Wellenlänge wurde nach 120 min aufgezeichnet. Durch die eindeutige Zuordnung der (x,y)-Koordinate zu einer bestimmten Verbindung ist diese eindeutig identifizierbar. Wirkstoffvorstufen mit hohen Verschiebungswerten sind kritisch im Hinblick auf die weitere Wirkstoffentwicklung.
Das Festphasenscreening wurde durchgeführt wie in Beispiel 1 beschrieben.

[2] = target: CYP3A4 (Homo sapiens, UniProt P08684); conditions: standard ligands immobilised on the array; CYP3A4 per Example 3 / Abb. 3
Sequence of CYP3A4 (P08684 whole entry): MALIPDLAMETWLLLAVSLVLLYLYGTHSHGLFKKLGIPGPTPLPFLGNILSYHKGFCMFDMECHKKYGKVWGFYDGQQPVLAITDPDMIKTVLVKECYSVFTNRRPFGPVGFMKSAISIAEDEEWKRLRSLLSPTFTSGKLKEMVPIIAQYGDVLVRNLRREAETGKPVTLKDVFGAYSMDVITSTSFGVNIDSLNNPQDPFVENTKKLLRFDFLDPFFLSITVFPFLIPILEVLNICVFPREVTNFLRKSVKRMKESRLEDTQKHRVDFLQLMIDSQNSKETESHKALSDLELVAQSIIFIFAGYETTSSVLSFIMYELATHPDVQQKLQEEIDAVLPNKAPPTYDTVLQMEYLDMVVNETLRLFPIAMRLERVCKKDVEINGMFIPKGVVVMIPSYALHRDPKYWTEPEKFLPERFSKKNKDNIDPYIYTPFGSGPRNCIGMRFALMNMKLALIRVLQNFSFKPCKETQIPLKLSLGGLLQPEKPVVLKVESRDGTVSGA
Excerpt: as §1, §2
Die Verschiebung der Wellenlänge wurde nach 120 min aufgezeichnet. Durch die eindeutige Zuordnung der (x,y)-Koordinate zu einer bestimmten Verbindung ist diese eindeutig identifizierbar.
3 gezeigten Standardliganden und deren Festphasenscreening gegen CYP3A4 eine Klassifizierung in sehr schwach (<1,6 nm), schwach (1,6-3,2 nm), mittel (3,2-4,8 nm), stark (4,8-6,4 nm) und sehr stark (>6,4 nm) durchgeführt. Anhand der bekannten Metabolismuseigenschaften der Standardliganden ist eine Zuordnung dieser ADME Eigenschaft für nicht bekannte Wirkstoffvorstufen möglich.

Sequence of HSA (P02768 25-609): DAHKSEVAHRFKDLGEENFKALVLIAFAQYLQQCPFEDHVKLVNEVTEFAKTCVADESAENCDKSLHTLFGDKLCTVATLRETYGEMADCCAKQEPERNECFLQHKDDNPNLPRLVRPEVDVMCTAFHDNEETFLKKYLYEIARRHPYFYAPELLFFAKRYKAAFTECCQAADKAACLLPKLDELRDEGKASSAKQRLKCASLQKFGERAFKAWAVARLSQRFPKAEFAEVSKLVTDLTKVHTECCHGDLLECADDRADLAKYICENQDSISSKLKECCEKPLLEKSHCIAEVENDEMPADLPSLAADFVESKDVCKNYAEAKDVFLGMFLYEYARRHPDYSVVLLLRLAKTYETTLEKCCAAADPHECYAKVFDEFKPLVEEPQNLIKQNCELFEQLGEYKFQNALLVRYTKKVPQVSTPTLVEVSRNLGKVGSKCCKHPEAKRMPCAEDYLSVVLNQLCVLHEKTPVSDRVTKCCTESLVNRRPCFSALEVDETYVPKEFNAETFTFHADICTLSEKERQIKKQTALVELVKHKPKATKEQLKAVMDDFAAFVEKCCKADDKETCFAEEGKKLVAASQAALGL

SMILES	Klassifizierung der Standardliganden für die Bestimmung von Distributionsparametern [1]	Klassifizierung der Standardliganden für die Bestimmung von Metabolismusparametern [2]
C=C[C@H]1C[N@@]2CC[C@H]1C[C@H]2[C@H](O)c1ccnc2ccc(OC)cc12 [Chinin]	schwach (schwach (0,7-1,4 nm))	
CC(=O)[C@H]1CC[C@H]2[C@@H]3CCC4=CC(=O)CC[C@]4(C)[C@H]3CC[C@]12C [Progesteron]		sehr stark (sehr stark (>6,4 nm))
CNCCC=C1c2ccccc2CCc2ccccc21 [Nortriptylin]	stark (stark (2,1-2,8 nm))	schwach (schwach (1,6-3,2 nm))
C=C[C@H]1C[N@@]2CC[C@H]1C[C@@H]2[C@@H](O)c1ccnc2ccc(OC)cc12 [Chinidin]	schwach (schwach (0,7-1,4 nm))	
CNCCCN1c2ccccc2CCc2ccccc21 [Desimpramin]	mittel (mittel (1,4-2,1 nm))	schwach (schwach (1,6-3,2 nm))
